Data as given in ChEMBL document CHEMBL3352227, “Synthesis, antimycobacterial and antibacterial evaluation of l-[(1R, 2S)-2-fluorocyclopropyl]fluoroquinolone derivatives containing an oxime functional moiety” (Eur J Med Chem, 2014).
In brackets after ≈: the same amount, converted by molar mass.

What follows are molecules tested on Klebsiella pneumoniae (assay: Antibacterial activity against extended-spectrum beta-lactamase producin Klebsiella pneumoniae 12-4 after 18 to 24 hrs by standard twofold serial dilution method).
Format: functional
Molecule `CO/N=C1/CN(c2c(F)cc3c(=O)c(C(=O)O)cn([C@@H]4C[C@@H]4F)c3c2Cl)CC1CN` (some centres not stated) has an MIC of 16 µg/mL (≈ 36.3 µM).

The molecules below were run on Pseudomonas aeruginosa (assay: Antibacterial activity against Pseudomonas aeruginosa 12-12 after 18 to 24 hrs by standard twofold serial dilution method).
Format: functional
Molecule `CO/N=C1/CN(c2c(F)cc3c(=O)c(C(=O)O)cn([C@@H]4C[C@@H]4F)c3c2Cl)CC1CN` (some centres not stated) has an MIC of 1 µg/mL (≈ 2.27 µM).

The molecules below were run on Klebsiella pneumoniae (assay: Antibacterial activity against extended-spectrum beta-lactamase producin Klebsiella pneumoniae 12-7 after 18 to 24 hrs by standard twofold serial dilution method).
Format: functional
`CO/N=C1/CN(c2c(F)cc3c(=O)c(C(=O)O)cn([C@@H]4C[C@@H]4F)c3c2Cl)CC1CN` (some centres not stated) showed an MIC of 4 µg/mL (≈ 9.07 µM).

The molecules below were run on Staphylococcus aureus (assay: Antibacterial activity against methicillin-resistant Staphylococcus aureus 12-4 after 18 to 24 hrs by standard twofold serial dilution method).
Format: functional
`CO/N=C1/CN(c2c(F)cc3c(=O)c(C(=O)O)cn([C@@H]4C[C@@H]4F)c3c2Cl)CC1CN` (some centres not stated) gave an MIC of 16 µg/mL (≈ 36.3 µM).

What follows are molecules tested on Mycobacterium tuberculosis (assay: Antimycobacterial activity against Mycobacterium tuberculosis H37Rv ATCC 27294 by MABA method).
Format: functional
With `CO/N=C1/CN(c2c(F)cc3c(=O)c(C(=O)O)cn([C@@H]4C[C@@H]4F)c3c2Cl)CC1CN` (some centres not stated) the MIC was 4 µg/mL (≈ 9.07 µM).

The molecules below were run on Klebsiella pneumoniae (assay: Antibacterial activity against Klebsiella pneumoniae 12-1 after 18 to 24 hrs by standard twofold serial dilution method).
Format: functional
`CO/N=C1/CN(c2c(F)cc3c(=O)c(C(=O)O)cn([C@@H]4C[C@@H]4F)c3c2Cl)CC1CN` (some centres not stated) was tested, and the MIC was 0.25 µg/mL (≈ 0.567 µM).

What follows are molecules tested on Klebsiella pneumoniae (assay: Antibacterial activity against extended-spectrum beta-lactamase producin Klebsiella pneumoniae 12-3 after 18 to 24 hrs by standard twofold serial dilution method).
Format: functional
`CO/N=C1/CN(c2c(F)cc3c(=O)c(C(=O)O)cn([C@@H]4C[C@@H]4F)c3c2Cl)CC1CN` (some centres not stated) showed an MIC of 32 µg/mL (≈ 72.6 µM).

What follows are molecules tested on Escherichia coli (assay: Antibacterial activity against extended-spectrum beta-lactamase producing Escherichia coli 12-3 after 18 to 24 hrs by standard twofold serial dilution method).
Format: functional
For `CO/N=C1/CN(c2c(F)cc3c(=O)c(C(=O)O)cn([C@@H]4C[C@@H]4F)c3c2Cl)CC1CN` (some centres not stated), the MIC was 32 µg/mL (≈ 72.6 µM).

These molecules were tested on Staphylococcus aureus (assay: Antibacterial activity against methicillin-sensitive Staphylococcus aureus 12-1 after 18 to 24 hrs by standard twofold serial dilution method).
Format: functional
With `CO/N=C1/CN(c2c(F)cc3c(=O)c(C(=O)O)cn([C@@H]4C[C@@H]4F)c3c2Cl)CC1CN` (some centres not stated) the MIC was 0.125 µg/mL (≈ 0.284 µM).

What follows are molecules tested on Staphylococcus aureus (assay: Antibacterial activity against methicillin-resistant Staphylococcus aureus 12-5 after 18 to 24 hrs by standard twofold serial dilution method).
Format: functional
In the case of `CO/N=C1/CN(c2c(F)cc3c(=O)c(C(=O)O)cn([C@@H]4C[C@@H]4F)c3c2Cl)CC1CN` (some centres not stated), the MIC is reported as 16 µg/mL (≈ 36.3 µM).

Each molecule was assayed on Staphylococcus aureus (assay: Antibacterial activity against methicillin-sensitive Staphylococcus aureus 12-4 after 18 to 24 hrs by standard twofold serial dilution method).
Format: functional
Molecule `CO/N=C1/CN(c2c(F)cc3c(=O)c(C(=O)O)cn([C@@H]4C[C@@H]4F)c3c2Cl)CC1CN` (some centres not stated) has an MIC of 0.06 µg/mL (≈ 0.136 µM).

What follows are molecules tested on Escherichia coli (assay: Antibacterial activity against Escherichia coli 12-1 after 18 to 24 hrs by standard twofold serial dilution method).
Format: functional
With `CO/N=C1/CN(c2c(F)cc3c(=O)c(C(=O)O)cn([C@@H]4C[C@@H]4F)c3c2Cl)CC1CN` (some centres not stated) the MIC was 1 µg/mL (≈ 2.27 µM).

Each molecule was assayed on Staphylococcus epidermidis (assay: Antibacterial activity against methicillin-sensitive Staphylococcus epidermidis 12-6 after 18 to 24 hrs by standard twofold serial dilution method).
Format: functional
In the case of `CO/N=C1/CN(c2c(F)cc3c(=O)c(C(=O)O)cn([C@@H]4C[C@@H]4F)c3c2Cl)CC1CN` (some centres not stated), the MIC is reported as 0.125 µg/mL (≈ 0.284 µM).

These molecules were tested on Staphylococcus aureus (assay: Antibacterial activity against methicillin-sensitive Staphylococcus aureus 12-5 after 18 to 24 hrs by standard twofold serial dilution method).
Format: functional
`CO/N=C1/CN(c2c(F)cc3c(=O)c(C(=O)O)cn([C@@H]4C[C@@H]4F)c3c2Cl)CC1CN` (some centres not stated) was tested, and the MIC was 0.125 µg/mL (≈ 0.284 µM).

Each molecule was assayed on Staphylococcus epidermidis (assay: Antibacterial activity against methicillin-sensitive Staphylococcus epidermidis 12-1 after 18 to 24 hrs by standard twofold serial dilution method).
Format: functional
`CO/N=C1/CN(c2c(F)cc3c(=O)c(C(=O)O)cn([C@@H]4C[C@@H]4F)c3c2Cl)CC1CN` (some centres not stated) showed an MIC of 0.125 µg/mL (≈ 0.284 µM).

Each molecule was assayed on Klebsiella pneumoniae (assay: Antibacterial activity against Klebsiella pneumoniae 12-4 after 18 to 24 hrs by standard twofold serial dilution method).
Format: functional
`CO/N=C1/CN(c2c(F)cc3c(=O)c(C(=O)O)cn([C@@H]4C[C@@H]4F)c3c2Cl)CC1CN` (some centres not stated) gave an MIC of 0.25 µg/mL (≈ 0.567 µM).

These molecules were tested on Klebsiella pneumoniae (assay: Antibacterial activity against Klebsiella pneumoniae 12-2 after 18 to 24 hrs by standard twofold serial dilution method).
Format: functional
In the case of `CO/N=C1/CN(c2c(F)cc3c(=O)c(C(=O)O)cn([C@@H]4C[C@@H]4F)c3c2Cl)CC1CN` (some centres not stated), the MIC is reported as 0.25 µg/mL (≈ 0.567 µM).

Each molecule was assayed on Pseudomonas aeruginosa (assay: Antibacterial activity against Pseudomonas aeruginosa 12-14 after 18 to 24 hrs by standard twofold serial dilution method).
Format: functional
In the case of `CO/N=C1/CN(c2c(F)cc3c(=O)c(C(=O)O)cn([C@@H]4C[C@@H]4F)c3c2Cl)CC1CN` (some centres not stated), the MIC is reported as 16 µg/mL (≈ 36.3 µM).

The molecules below were run on Staphylococcus epidermidis (assay: Antibacterial activity against methicillin-sensitive Staphylococcus epidermidis 12-8 after 18 to 24 hrs by standard twofold serial dilution method).
Format: functional
With `CO/N=C1/CN(c2c(F)cc3c(=O)c(C(=O)O)cn([C@@H]4C[C@@H]4F)c3c2Cl)CC1CN` (some centres not stated) the MIC was 2 µg/mL (≈ 4.54 µM).

The molecules below were run on Staphylococcus epidermidis (assay: Antibacterial activity against methicillin-resistant Staphylococcus epidermidis 12-6 after 18 to 24 hrs by standard twofold serial dilution method).
Format: functional
`CO/N=C1/CN(c2c(F)cc3c(=O)c(C(=O)O)cn([C@@H]4C[C@@H]4F)c3c2Cl)CC1CN` (some centres not stated) showed an MIC of 4 µg/mL (≈ 9.07 µM).

The molecules below were run on Escherichia coli (assay: Antibacterial activity against extended-spectrum beta-lactamase producing Escherichia coli 12-14 after 18 to 24 hrs by standard twofold serial dilution method).
Format: functional
Work on `CO/N=C1/CN(c2c(F)cc3c(=O)c(C(=O)O)cn([C@@H]4C[C@@H]4F)c3c2Cl)CC1CN` (some centres not stated) yielded an MIC of 64 µg/mL (≈ 145 µM).

What follows are molecules tested on Staphylococcus epidermidis (assay: Antibacterial activity against methicillin-sensitive Staphylococcus epidermidis 12-3 after 18 to 24 hrs by standard twofold serial dilution method).
Format: functional
Molecule `CO/N=C1/CN(c2c(F)cc3c(=O)c(C(=O)O)cn([C@@H]4C[C@@H]4F)c3c2Cl)CC1CN` (some centres not stated) has an MIC of 0.5 µg/mL (≈ 1.13 µM).

What follows are molecules tested on Staphylococcus aureus (assay: Antibacterial activity against methicillin-resistant Staphylococcus aureus 12-2 after 18 to 24 hrs by standard twofold serial dilution method).
Format: functional
`CO/N=C1/CN(c2c(F)cc3c(=O)c(C(=O)O)cn([C@@H]4C[C@@H]4F)c3c2Cl)CC1CN` (some centres not stated) gave an MIC of 16 µg/mL (≈ 36.3 µM).

The molecules below were run on Escherichia coli (assay: Antibacterial activity against Escherichia coli ATCC 25922 after 18 to 24 hrs by standard twofold serial dilution method).
Format: functional
`CO/N=C1/CN(c2c(F)cc3c(=O)c(C(=O)O)cn([C@@H]4C[C@@H]4F)c3c2Cl)CC1CN` (some centres not stated) gave an MIC of 0.125 µg/mL (≈ 0.284 µM).

What follows are molecules tested on Escherichia coli (assay: Antibacterial activity against extended-spectrum beta-lactamase producing Escherichia coli 12-15 after 18 to 24 hrs by standard twofold serial dilution method).
Format: functional
Molecule `CO/N=C1/CN(c2c(F)cc3c(=O)c(C(=O)O)cn([C@@H]4C[C@@H]4F)c3c2Cl)CC1CN` (some centres not stated) has an MIC of 128 µg/mL (≈ 290 µM).

Each molecule was assayed on Staphylococcus aureus (assay: Antibacterial activity against Staphylococcus aureus ATCC 25923 after 18 to 24 hrs by standard twofold serial dilution method).
Format: functional
In the case of `CO/N=C1/CN(c2c(F)cc3c(=O)c(C(=O)O)cn([C@@H]4C[C@@H]4F)c3c2Cl)CC1CN` (some centres not stated), the MIC is reported as under 0.008 µg/mL.

Each molecule was assayed on Streptococcus pneumoniae (assay: Antibacterial activity against Streptococcus pneumoniae 12-18 after 18 to 24 hrs by standard twofold serial dilution method).
Format: functional
`CO/N=C1/CN(c2c(F)cc3c(=O)c(C(=O)O)cn([C@@H]4C[C@@H]4F)c3c2Cl)CC1CN` (some centres not stated) gave an MIC of 1 µg/mL (≈ 2.27 µM).

The molecules below were run on Klebsiella pneumoniae (assay: Antibacterial activity against extended-spectrum beta-lactamase producin Klebsiella pneumoniae 12-14 after 18 to 24 hrs by standard twofold serial dilution method).
Format: functional
With `CO/N=C1/CN(c2c(F)cc3c(=O)c(C(=O)O)cn([C@@H]4C[C@@H]4F)c3c2Cl)CC1CN` (some centres not stated) the MIC was 32 µg/mL (≈ 72.6 µM).

These molecules were tested on Escherichia coli (assay: Antibacterial activity against extended-spectrum beta-lactamase producing Escherichia coli 12-2 after 18 to 24 hrs by standard twofold serial dilution method).
Format: functional
In the case of `CO/N=C1/CN(c2c(F)cc3c(=O)c(C(=O)O)cn([C@@H]4C[C@@H]4F)c3c2Cl)CC1CN` (some centres not stated), the MIC is reported as 64 µg/mL (≈ 145 µM).

What follows are molecules tested on Staphylococcus aureus (assay: Antibacterial activity against methicillin-sensitive Staphylococcus aureus 12-2 after 18 to 24 hrs by standard twofold serial dilution method).
Format: functional
With `CO/N=C1/CN(c2c(F)cc3c(=O)c(C(=O)O)cn([C@@H]4C[C@@H]4F)c3c2Cl)CC1CN` (some centres not stated) the MIC was 0.125 µg/mL (≈ 0.284 µM).

The molecules below were run on Staphylococcus epidermidis (assay: Antibacterial activity against methicillin-resistant Staphylococcus epidermidis 12-1 after 18 to 24 hrs by standard twofold serial dilution method).
Format: functional
Work on `CO/N=C1/CN(c2c(F)cc3c(=O)c(C(=O)O)cn([C@@H]4C[C@@H]4F)c3c2Cl)CC1CN` (some centres not stated) yielded an MIC of 4 µg/mL (≈ 9.07 µM).

What follows are molecules tested on Streptococcus pneumoniae (assay: Antibacterial activity against Streptococcus pneumoniae ATCC 49619 after 18 to 24 hrs by standard twofold serial dilution method).
Format: functional
`CO/N=C1/CN(c2c(F)cc3c(=O)c(C(=O)O)cn([C@@H]4C[C@@H]4F)c3c2Cl)CC1CN` (some centres not stated) was tested, and the MIC was 0.25 µg/mL (≈ 0.567 µM).
